Results: patent US6277383A, “Ryegrass pollen allergen” (University of Melbourne, priority 1995, dated 2001)

Experiments:
[1] = system: IgE affinity purified from recombinant allergens and IgE from whole serum of allergic individuals; test: Two-dimensional Western blot: IgE binding to allergens; set-up: species or system human; conditions: IgE preparations that bind: AP12R, AP13R, AP19R = affinity purified from recombinant Lol p Ib.1 fragment IH, Lol p Ia clone 13R, Lol p Ib.2; TIgE = whole serum
From the text: Serum used in the experiment to identify allergen regions of Lol p Ia and Lol p Ib was collected by Dr. R. Phomley at the Epworth Hospital (Richmond, Australia) from patients with a history of allergy to ryegrass pollen and a positive skin test to ryegrass pollen extract. IgE was affinity-purified from recombinant allergens as previously described (Singh, et al., (1991) Proc. Nat'l Acad. Sci. USA, […]; Example 2) except recombinant proteins were derived from lambda-gt11 culture rather than pGEX cultures.
(§1) Two dimensional (2D)-PAGE was performed in a mini-Protean II 2-D cell (Biorad, Richmond, Calif.) according to the manufacturer instructions. The proteins were diluted 1:1 in 4% CHAPS. […] The first dimension gel was run for 3.5 hours. The econd dimension gel was run for 45 minutes. Proteins on 2D-PAGE gels were silver stained to reveal the protein profile.
Conditions for electrophoresis and Western blotting and for the processing of Western blots with MAbs and IgE were as described by Singh, et al., (1985) Int. Arch. Allergy Appl. Immun., 78:300.

[2] = Two dimensional gel electrophoresis of ryegrass pollen proteins (pI); assay type: physicochemical, Lolium perenne; conditions: allergen spot on two dimensional gel
Procedure: as §1

[3] = system: IgE from sera of allergic indivs.; test: Screening of lambda-gt 11 cDNA clones for IgE binding; set-up: species or system human; key: ++: strongest binding; -: no binding; conditions: protein expressed by lambda-gt 11 clone, plaque lift
Procedure: (§2) Poly (A+) mRNA isolated from mature rye grass pollen by the phenol method ([…] and Michaels, (1984) Plant Mol. Biol. Rep., 2:24-28) was used to construct a cDNA library in the vector lambda-gt 11. The library was then screened with antibody probes to detect sequences expressing Group I proteins. E. coli […] transfected with 3×10^4 recombinant phages were plated and incubated at 42° C. for 3 h. The plates were overlaid with a dry 132 mm nitrocellulose (NC) filter previously soaked in 10 mm IPTG and transferred to 37° C. After incubation for 3 h the filters were carefully peeled off and incubated in 20 ml per filter of MTBS (10% w/v non-fat milk powder, 50 mm Tris-HCI, pH 7.6, 150 mM Nacl) for 30 min. at room temperature. A second set of NC filters was placed on phage plates and after incubating for 3 h were treated as above. Both sets of NC filters were tested for binding of MAb 40.1 to plaques by the method described in Huynh et al. (1985) In: DNA Cloning, a practical approach, Glover, D. M. (ed.) Vol. 1, pp. 49-78, IRL Press, Oxford, England. The antibody positive plaques were picked, purified, then replated and tested for binding to probes. The positive clones were plaque-purified and tested for IgE binding using sera from grass pollen-allergic subjects. Eighteen clones were selected as encoding proteins recognized by both Lol p I-specific MAbs and IgE antibodies (Table 1). The largest of the cDNA clones, 1.2kb in size, that expressed rye-grass allergenic protein was initially selected for further characterization and sequencing, and designated clone lambda-12R (FIG. 1a).

[4] = system: MAb 40.1; test: Antibody screening of lambda-gt 11 cDNA clones: binding of MAb 40.1; set-up: key: ++: strongest binding; -: no binding; conditions: protein expressed by lambda-gt 11 clone in E. coli Y1090, plaque lift
Procedure: as §2

[5] = system: human IgE of individual sera; test: Peptide dot blot immunoassay: human IgE; assay type: binding; conditions: for IgE Binding (symbol): sera diluted 1:4
Procedure: (§3) The peptides were dissolved in water to give a 1.6 mM stock solution. Insoluble peptides were dissolved by sonication (Branson Sonifier 450, USA) for 1 minute.
(§4) The peptides were immobilized onto nitrocellulose (NC) filter by using a modified method published elsewhere (Sithigonglu (1991) J. Immunol. Methods, 141:23-32). Two μl of the peptide stock solutions were spotted on the NC filter (Schleicher & Schuell, W. Germany) about 1 cm apart. After the strips were dried and baked at 80° C. for one hour, they were fixed by exposure, in a tightly sealed plastic box, to vapor from 0.2% glutaraldehyde in PBS at room temperature (18° C.) for one hour. After washing thoroughly with distilled water, the NC filters were blocked with Blotto (10% non-fat dry milk in PBS) for two hours and washed in 1×Tween-PBS (0.1% Tween-20 in PBS) and 2×PBS, five minutes each.
(§5) The peptides were then screened for human IgE and mouse/rabbit IgG epitopes with individual sera (diluted 1:4 in PBS with 0.5% BSA), MAbs FMC A7 (Smart et al. (1983) Int. Arch. Allergy Clin. Immunol. 72: 243) and polyclonal rabbit anti-Lol p Ib antibody. The rabbit anti-sera was a gift from Dr. Jenny Roland, Alfred Hospital, Melbourne, Australia.
(§6) The intensity of each dot blot was measured by densitometer (Pharmacia LKB UltraScan XL, Sweden). Densitometric values greater than two were considered as positive binding in comparison to the background. For every peptide, the sera and antibody values have been added (score/peptide) and divided by the number of positive sera to express the final value as an average (score/sera). Sera C1 and C2 were not grass allergic and were used as negative controls. C refers to crude ryegrass pollen extract (1 μg/dot) as positive control.

[6] = system: MAb 12.3; test: Antibody screening of lambda-gt 11 cDNA clones: binding of MAb 12.3; set-up: key to Binding of MAb 12.3: ++: strongest binding; -: no binding; conditions: protein expressed by lambda-gt 11 clone in E. coli Y1090, plaque lift
Procedure: as §2

[7] = system: Mab FMC-A7 and rabbit polyclonal anti-Lol p Ib antiserum; test: Peptide dot blot immunoassay: mouse/rabbit IgG; assay type: binding
Procedure: as §3, §4, §5, §6

Row | Sequence | IgE binding [1] | pI [2] | Binding of IgE from sera of allergic indivs. [3] | Binding of MAb 40.1 [4] | IgE Binding (symbol) [5] | Binding of MAb 12.3 [6] | Human IgE-reactivity (in words) [5] | Mouse/rabbit IgG-reactivity (in words) [7]
1 | AAATPATPAATPA [Peptide 2] | AP13R TIgE | 5.9 | - | ++ |  |  |  | 
2 | AAEGATPEAKYD [Peptide 13] | TIgE | 7 |  | ++ | + (Densitometric values greater than two were considered as positive binding) |  |  | 
3 | AALTKAITAMTQA [Peptide 29] |  |  |  |  | + (Densitometric values greater than two were considered as positive binding) |  |  | 
4 | AATPAAAGGKAT [Peptide 3] | AP13R TIgE | 6.45 | - | ++ |  |  |  | 
5 | AKYDAFVTALTE [Peptide 14] | TIgE | 7.3 | ++ | ++ |  | ++ |  | 
6 | ALTEGLRVIAGA [Peptide 15] | TIgE | 9 | - | - |  | - |  | 
7 | AMTQAQKAGKPA [Peptide 30] |  |  |  |  | + (Densitometric values greater than two were considered as positive binding) |  | highest human IgE-reactivity | 
8 | ATAANAAPTNDK [Peptide 21] |  |  |  |  | + (Densitometric values greater than two were considered as positive binding) |  | highest human IgE-reactivity | 
9 | AVKPATEEVPAA [Peptide 17] | TIgE | < 5.65 | - | ++ |  |  |  | 
10 | ESAFNKALNECT [Peptide 23] |  |  |  |  | + (Densitometric values greater than two were considered as positive binding) |  | highest human IgE-reactivity | highest mouse/rabbit IgG-reactivity
11 | ETYKFIPSLEAA [Peptide 25] |  |  |  |  | + (Densitometric values greater than two were considered as positive binding) |  |  | 
12 | EVKYAVFEAALT [Peptide 28] |  |  |  |  |  |  |  | highest mouse/rabbit IgG-reactivity
13 | FSESSKGLLATS [Peptide 9] | AP12R,AP19R and TIgE | 7.2 | - | - |  | - |  | 
14 | GAATAAAGGYKA [Peptide 34] |  |  |  |  | + (Densitometric values greater than two were considered as positive binding) |  | highest human IgE-reactivity | 
15 | GELQIVDKIDAA [Peptide 19] |  |  |  |  | + (Densitometric values greater than two were considered as positive binding) |  | highest human IgE-reactivity | highest mouse/rabbit IgG-reactivity
16 | GFKAAVAAAANA [Peptide 6] | AP12R,AP19R and TIgE | 6.45 | - | ++ | + (Densitometric values greater than two were considered as positive binding) |  |  | 
17 | GKATTDEQKLLE [Peptide 4] | AP13R TIgE | 7 | - | ++ |  |  |  | 
18 | IAGALEVHAVKPA [Peptide 16] | TIgE | < 5.65 | - | ++ | + (Densitometric values greater than two were considered as positive binding) |  | highest human IgE-reactivity | 
19 | KFKIFEAAFSES [Peptide 8] | AP12R,AP19R and TIgE | 6.45 | - | - |  | - |  | 
20 | KLLEDVNAGFKA [Peptide 5] | AP12R,AP19R and TIgE | 6 | - | ++ | + (Densitometric values greater than two were considered as positive binding) |  |  | 
21 | LATSAAKAPGLI [Peptide 10] | AP12R,AP19R and TIgE | 8.3 | - | - | + (Densitometric values greater than two were considered as positive binding) | - |  | 
22 | PGLIPKLNTAYD [Peptide 11] | AP12R,AP19R and TIgE | 10.6 | - | ++ |  |  |  | 
23 | TAYDVAYKAAEG [Peptide 12] | AP12R,AP19R and TIgE | 8.0 | ++ | ++ |  | ++ |  | 
24 | VPAAKIPTGELQI [Peptide 18] |  |  | ++ | ++ | + (Densitometric values greater than two were considered as positive binding) | ++ |  | 
25 | YAATVAAPEVKY [Peptide 27] |  |  |  |  | + (Densitometric values greater than two were considered as positive binding) |  |  | 
